# Measurements as given in patent US20240082228A1, “SARS-COV-2 THERAPEUTICS” (priority 2021, published 2024).
# Where “and” joins values, the source holds several entries; their conditions need not be identical. Equal entries are not always repeated. Where two headings read alike, the source gives them in different places.
# Key:
# [1] = for Average Cell Number (1 uM) / Cell Number (1 uM) / Normalized Cell Number (1 uM): compound at 1 uM; for Average Cell Number (1 uM) / Average Cell Number (5 uM): average of normalized cell number, n=3, relative to DMSO; for Average Cell Number (5 uM) / Cell Number (5 uM) / Normalized Cell Number (5 uM): compound at 5 uM; for Cell Number (5 uM) / Normalized Cell Number (5 uM) / Cell Number (1 uM) / Normalized Cell Number (1 uM): single replicate; for Cell Number (5 uM) / Cell Number (1 uM): raw cell count; for Normalized Cell Number (5 uM) / Normalized Cell Number (1 uM): relative to negative control DMSO
# SARS-CoV-2 = experiment: microbe, parasite or virus in culture; assay type: cell-based; settings: for HIT: overall, 1 or 5 uM; for activity at 1 µM: Severe acute respiratory syndrome coronavirus 2, 1 uM, read-out: Normalized Infection (1 uM); for activity at 1 µM / activity at 5 µM: single replicate, relative to negative control DMSO; for activity at 5 µM: Severe acute respiratory syndrome coronavirus 2, 5 uM, read-out: Normalized Infection (5 uM)
# [2] = 1 uM, average log2FC infection (n=3) relative to DMSO
# [3] = 5 uM, average log2FC infection (n=3) relative to DMSO
Structure (SMILES),Toxic (1 uM) [1],Toxic (5 uM) [1],Average Cell Number (1 uM) [1],Average Cell Number (5 uM) [1],Cell Number (5 uM) [1],Normalized Cell Number (5 uM) [1],"HIT (2 Std, 1 uM) (SARS-CoV-2; 1 uM)",Average Infection (1 uM) (SARS-CoV-2; [2]),Average Infection (5 uM) (SARS-CoV-2; [3]),HIT (SARS-CoV-2),Cell Number (1 uM) [1],Normalized Cell Number (1 uM) [1],"HIT (2 Stdv, 5 uM) (SARS-CoV-2; 5 uM)",activity at 1 µM (SARS-CoV-2),activity at 5 µM (SARS-CoV-2),Average Infection (1 uM) (SARS-CoV-2),Average Infection (5 uM) (SARS-CoV-2)
"O=C(O)Cn1nnc(-c2cc(N3CCC(Oc4cc(F)ccc4Br)CC3)no2)n1 [MK-8245, mk-8245]",0 (non-toxic (Normalized Cell number>0.65),0 (non-toxic (Normalized Cell number>0.65),0.7263,0.9401,5812 and 4892 and 6009,0.9807 and 0.8255 and 1.014,HIT,0.7764,−0.05739,Yes,–,–,–,–,–,–,–
"CCCCN(CCCC)CCC(O)c1cc2c(Cl)cc(Cl)cc2c2cc(C(F)(F)F)ccc12 (centres unmarked) [Halofantrine lot −5, halofantrine]",0 (non-toxic (Normalized Cell number>0.65),0 (non-toxic (Normalized Cell number>0.65),0.6582,0.8653,5286 and 5054 and 5044,0.892 and 0.8528 and 0.8511,HIT,−1.062,−1.947,Yes,3755 and 3889 and 3927,0.6408 and 0.6637 and 0.6701,HIT,–,–,–,–
"CS(=O)(=O)N1CCc2c(-c3cnc(N)nc3)nc(N3CCOCC3)nc21 [CH5132799, ch5132799]",0 (non-toxic (Normalized Cell number>0.65),–,0.6597,0.5239,3141 and 3289 and 2884,0.53 and 0.555 and 0.4867,HIT,−1.059,−3.565,Yes,4526 and 3593 and 3479,0.7724 and 0.6131 and 0.5937,HIT,42.1%,8.27%,–,–
"CC(C)OC(=O)[C@H](C)N[P@](=O)(OC[C@H]1O[C@@H](n2ccc(=O)[nH]c2=O)[C@](C)(F)[C@@H]1O)Oc1ccccc1 [PSI-7977, Sofosbuvir]",0 (non-toxic (Normalized Cell number>0.65),0 (non-toxic (Normalized Cell number>0.65),1.039,0.991,5941 and 5681 and 5997,1.002 and 0.9586 and 1.012,–,–,–,Yes,6209 and 5916 and 6135,1.06 and 1.01 and 1.047,HIT,80.9%,70.5%,−0.27,−0.4905
"CC1(C)S[C@@H]2[C@H](NC(=O)[C@H](N)c3ccccc3)C(=O)N2[C@H]1C(=O)O [Ampicillin, ampicillin]",0 (non-toxic (Normalized Cell number>0.65),0 (non-toxic (Normalized Cell number>0.65),0.694,0.9658,5481 and 5912 and 5777,0.9249 and 0.9976 and 0.9748,HIT,−0.9564,−0.0334,Yes,3959 and 4296 and 3945,0.6756 and 0.7331 and 0.6732,–,48.2%,102%,–,–
